From patent US12410124B2 (priority 2019, dated 2025)
Read-outs that look alike come from different tables or passages of the source.

Experiments:
[1] = system: fetal rat midbrain neurons; test: Survival rate of primary midbrain neurons induced by MPP+ (CCK-8); type: cell-based; conditions: for viability at 5 µM / viability at 10 µM / viability at 20 µM: Rattus norvegicus, Neuron, read-out: Survival rate (%)
[2] = system: substantia nigra p-α-s; test: Substantia nigra p-α-s protein expression in MPTP Parkinson's disease model mouse (immunofluorescence); type: in vivo; conditions: percentage of mean intensity of blank control group, gavage 21 days after MPTP modeling
[3] = system: substantia nigra TH; test: Substantia nigra TH expression in MPTP Parkinson's disease model mouse (immunofluorescence); type: in vivo; conditions: percentage of mean intensity of blank control group, gavage 21 days after MPTP modeling
[4] = system: hippocampus CD11b; test: Number of hippocampus microglial cells with CD11b positive expression in MPTP Parkinson's disease model mouse (immunohistochemistry); type: in vivo; conditions: for Positive cell number (microglial cells with CD11b positive expression): hippocampus, MPTP Parkinson's disease model mouse, immunohistochemistry
[5] = system: substantia nigra GFAP; test: Number of substantia nigra astrocytes with GFAP positive expression in MPTP Parkinson's disease model mouse (immunohistochemistry); type: in vivo; conditions: for Positive cell number (astrocytes with GFAP positive expression): substantia nigra, MPTP Parkinson's disease model mouse, immunohistochemistry
[6] = 5 μM, 3 h pre-incubation, 48 h with MPP+
[7] = 10 μM, 3 h pre-incubation, 48 h with MPP+
[8] = 20 μM, 3 h pre-incubation, 48 h with MPP+

Row | SMILES | viability at 5 µM [1, 6] | viability at 10 µM [1, 7] | viability at 20 µM [1, 8] | Expression (Immunofluorescence intensity %) [2] | Expression (Immunofluorescence intensity %) [3] | Positive cell number (microglial cells with CD11b positive expression) [4] | Positive cell number (astrocytes with GFAP positive expression) [5] | survival rate compared with the styryl sulfone prototype compounds ([1]; no concentration stated) | number of hippocampus microglial cells with CD11b positive expression compared with the styryl sulfone prototype compounds [4] | number of substantia nigra astrocytes with GFAP positive expression compared with the styryl sulfone prototype compounds [5] | viability at 5 µM ([1]; 48 h) | viability at 10 µM ([1]; 48 h) | viability at 20 µM ([1]; 48 h)
1 | O=C(NC(=O)C(F)(F)F)Oc1ccc(/C=C/S(=O)(=O)C(F)(F)c2ccc(Oc3ccccn3)cc2)cc1OC(=O)C(F)(F)C(F)(F)F [Compound L1-4, (E)-5-{2-[(4-[pyridin-2-yl-oxy]phenyl)difluoromethylsulfonyl]ethenyl}-2-[N-(2,2,2-trifluoroacetyl)carbamoyloxy]phenyl-2,2,3,3,3-pentafluoropropionate] | 67.5 ± 3.52% | 75.4 ± 2.59% | 86.2 ± 1.86% | 58.37 ± 6.11% | 83.22 ± 5.98% | 15 ± 2 | 98 ± 4 |  |  |  |  |  | 
2 | O=S(=O)(/C=C/c1ccc(O)c(O)c1)CCCc1ccccc1 [Compound 3C, (E)-4-{2-[(3-phenylpropyl)sulfonyl]ethenyl}benzene-1,2-diol, reference compound] | 61.3 ± 3.22% | 75.7 ± 1.98% | 74.2 ± 4.55% | 132.98 ± 7.78% | 74.63 ± 9.15% | 20 ± 3 | 121 ± 13 |  |  |  |  |  | 
3 | CCN(CC)C(=O)Oc1ccc(/C=C/S(=O)(=O)CCCc2ccccc2)cc1OC(=O)N(CC)CC [Compound C1-1, (E)-4-[2-(3-phenylpropylsulfonyl)ethenyl]-1,2-phenylenebis(diethylcarbamate)] | 69.5 ± 3.89% | 82.2 ± 3.07% | 90.3 ± 2.17% | 123.59 ± 8.25% | 96.58 ± 6.15% | 7 ± 2 | 56 ± 4 | significantly increased | significantly lower | significantly lower |  |  | 
4 | COc1ccc(CC(=O)Oc2ccc(C(N)CS(=O)(=O)/C=C/c3ccc(OC(C)(C)C)c(OC(=O)N(C)c4ccccc4)c3)cc2)cc1 (centres unmarked) [Compound P1-3, (E)-4-{1-amino-2-[4-t-butoxy-3-(N-methyl-N-phenylcarbamoyloxy)styrylsulfonyl]ethyl}phenyl-2-(4-methoxyphenyl)acetate] |  |  |  | 48.33 ± 5.37% | 79.20 ± 6.53% | 16 ± 2 | 69 ± 5 |  |  |  | 71 ± 3.56% | 85.2 ± 2.94% | 93.7 ± 3.08%
5 | CCOC(CS(=O)(=O)/C=C/c1ccc(OC(C)=O)c(OC(=O)Nc2ccc(NC)cc2)c1)C(OCC)c1ccc(OCc2ccccc2)c(O)c1 (centres unmarked) [Compound H2-4, (E)-4-{2-[3-(4-benzyloxy-3-hydroxyphenyl)-2,3-diethoxypropyl]sulfonylethenyl}-2-[N-(4-methylaminophenyl)carbamoyloxy]phenyl acetate] | 69 ± 4.31% | 81.5 ± 3.24% | 89.4 ± 1.65% | 136.53 ± 8.94% | 95.20 ± 6.06% | 7 ± 1 | 93 ± 6 |  |  |  |  |  | 
